For 60 compounds, pest or weed control results are on record in patent publication US20200288710A1, “SUBSTITUTED SULPHONAMIDES FOR CONTROLLING ANIMAL PESTS” (BAYER CROPSCIENCE AKTIENGESELLSCHAFT, priority 2016, published 2020).

The test system of one assay is Myzus persicae. Put plainly: Myzus persicae oral test. As to conditions: 120 h, 20 ppm, oral uptake, after 5 days, read-out: efficacy. It counts as in vivo. The method in brief:
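Compound dissolved in acetone, diluted in water, then mixed 50:150 μl with IPL41 insect medium (33%+15% sugar). Mixed-population green peach aphids feed through a parafilm seal on the solution; mortality scored as % efficacy after 5 days (100% = all killed).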

In the next assay the test system is Meloidogyne incognita. Kind of assay: Meloidogyne incognita test. It counts as in vivo. As to conditions: 336 h, lettuce, after 14 days, read-out: nematicidal efficacy (formation of galls). Here is the method:
Meloidogyne incognita Test Solvent: 125.0 parts by weight of acetone To produce a suitable active compound preparation, 1 part by weight of active compound is mixed with the stated amount of solvent and the concentrate is diluted with water to the desired concentration. Vessels are filled with sand, active compound solution, an egg/larvae suspension of the southern rootknot nematode (Meloidogyne incognita) and lettuce seeds. The lettuce seeds germinate and the plants develop. The galls develop on the roots. After 14 days, the nematicidal efficacy in % is determined by the formation of galls. 100% means that no galls were found; 0% means that the number of galls on the treated plants corresponds to the untreated control.

As for `CCn1cc(C(=O)NS(=O)(=O)c2ccccc2C(F)(F)F)nc1-c1ccccc1Cl` [Example 21], the pest or weed control at 20 ppm with Myzus persicae was 100%; in the assay on Meloidogyne incognita it was 90%.
In the case of `CCn1cc(C(=O)NS(=O)(=O)c2cccc(Cl)c2)nc1-c1ccccc1Cl` [Example 40], the pest or weed control at 20 ppm in the assay on Myzus persicae and with Meloidogyne incognita was 100% in each case.
In the case of `Cc1ccccc1-c1nc(C(=O)NS(=O)(=O)c2ccc(Cl)cc2)cn1C` [Example 49], the pest or weed control at 20 ppm in the assay on Myzus persicae and in the assay on Meloidogyne incognita was 100% in each case.
With `Cn1cc(C(=O)NS(=O)(=O)Cc2cccc(Cl)c2)nc1-c1ccccc1Cl` [Example 61], the pest or weed control at 20 ppm in the assay on Myzus persicae and in the assay on Meloidogyne incognita was 100% each time.
Regarding `Cn1cc(C(=O)NS(=O)(=O)Cc2ccc(Cl)cc2)nc1-c1ccccc1Cl` [Example 63], the pest or weed control at 20 ppm in the assay on Myzus persicae and with Meloidogyne incognita was 100% each time.
Regarding `CCn1cc(C(=O)NS(=O)(=O)CC(F)(F)F)nc1-c1ccccc1Cl` [Example 77], the pest or weed control at 20 ppm with Myzus persicae and with Meloidogyne incognita was 90% each time.
On to `CCc1[nH]c(-c2cccc(Br)c2)nc1C(=O)NS(=O)(=O)c1ccccc1C` [Example 134], for which the pest or weed control at 20 ppm worked out at 100% in the assay with Myzus persicae and 90% in the assay on Meloidogyne incognita.
For `COCCS(=O)(=O)NC(=O)c1cn(C)c(-c2c(F)cccc2F)n1` [Example 141], in that order: 90% and 90%.
`Cn1cc(C(=O)NS(=O)(=O)c2ccc(Cl)c(Cl)c2)nc1-c1c(F)cccc1F` [Example 187]: the values for the pest or weed control at 20 ppm in the assay on Myzus persicae and with Meloidogyne incognita were 100% and 90%, respectively.
With `Cc1[nH]c(-c2c(F)cccc2F)nc1C(=O)NS(=O)(=O)c1ccccc1Cl` [Example 192], the pest or weed control at 20 ppm stood at 100% in the assay with Myzus persicae and 90% in the assay with Meloidogyne incognita.
In the same order, the values of `CCc1c(C(=O)NS(=O)(=O)c2ccccc2C)nc(-c2c(F)cccc2F)n1C` [Example 199] are 100% and 90%.
For `Cc1[nH]c(C(=O)NS(=O)(=O)C(C)C)nc1-c1ccccc1Cl` [Example 202], in that order: 100% and 90%.
`CC(C)c1ccccc1-c1nc(C(=O)NS(=O)(=O)c2ccccc2Cl)cn1C` [Example 209]: the pest or weed control at 20 ppm in the assay with Myzus persicae and in the assay with Meloidogyne incognita was 90% throughout.
Consider `Cc1[nH]c(-c2cccc(Cl)c2)nc1C(=O)NS(=O)(=O)c1ccccc1Cl` [Example 233], for which the pest or weed control at 20 ppm in the assay with Myzus persicae turned out to be 100%; in the assay with Meloidogyne incognita, 90%.
With `COc1cccc(OC(C)C)c1S(=O)(=O)NC(=O)c1cn(C)c(-c2c(F)cccc2F)n1` [Example 380], the pest or weed control at 20 ppm in the assay on Meloidogyne incognita was 100%.
The same measure, in the same setting: the same measure for `COc1cccc(S(C)(=O)=O)c1S(=O)(=O)NC(=O)c1cn(C)c(-c2c(F)cccc2F)n1` [Example 382]: 90%.
Same read-out and setting: in the case of `CCOc1cccc(C(C)C)c1S(=O)(=O)NC(=O)c1cn(C)c(-c2c(F)cccc2F)n1` [Example 384] it was 90%; in that of `COc1ccc(C(C)(C)C)cc1S(=O)(=O)NC(=O)c1cn(C)c(-c2c(F)cccc2F)n1` [Example 392], 90%.
For the compound `Cc1ccc(C(C)C)cc1S(=O)(=O)NC(=O)c1cn(C)c(-c2c(F)cccc2F)n1` [Example 396], the pest or weed control at 20 ppm with Meloidogyne incognita amounted to 90%.
Still for that read-out and setting: in the case of `Cn1nc(-c2c(F)cccc2F)nc1C(=O)NS(=O)(=O)c1ccccc1Br` [Example 408] it was 90%.
Still for that read-out and setting: in the case of `COc1ccccc1S(=O)(=O)NC(=O)c1nc(-c2c(F)cccc2F)nn1C` [Example 409] it was 90%; in that of `Cc1ccccc1S(=O)(=O)NC(=O)c1nc(-c2c(F)cccc2F)nn1C` [Example 410], 90%; in that of `CCn1c(C(=O)NS(=O)(=O)c2ccccc2C)nc(-c2c(F)cccc2F)c1C` [Example 417], 100%.
Regarding `COc1ccc(Cl)c(S(=O)(=O)NC(=O)c2cc(-c3ncccc3Cl)n(-c3ccccc3Cl)n2)c1` [Example 457], the pest or weed control at 20 ppm in the assay with Meloidogyne incognita came to 100%.
With `CCc1[nH]c(-c2ccc(F)c(F)c2)nc1C(=O)NS(=O)(=O)c1ccccc1Cl` [Example 471], the pest or weed control at 20 ppm in the assay on Meloidogyne incognita is 90%.
Take `CCc1[nH]c(-c2cccc(C)c2C)nc1C(=O)NS(=O)(=O)c1ccccc1Cl` [Example 472]: the pest or weed control at 20 ppm in the assay with Meloidogyne incognita amounted to 90%.
Still for that read-out and setting: in the case of `Cc1ccccc1S(=O)(=O)NC(=O)c1cn(C)c(-c2ccccc2C(C)C)n1` [Example 473] it was 90%; in that of `CCSc1ccccc1-c1nc(C(=O)NS(=O)(=O)c2ccccc2C)cn1C` [Example 475], 90%; in that of `COc1ccccc1S(=O)(=O)NC(=O)c1cn(C)c(-c2cccc3ccccc23)n1` [Example 480], 90%.
In the case of `Cn1cc(C(=O)NS(=O)(=O)c2ccccc2Cl)nc1-c1ccccc1C#N` [Example 481], in the assay with Meloidogyne incognita, the pest or weed control at 20 ppm stood at 90%.
Same read-out and setting: in the case of `Cn1cc(C(=O)NS(=O)(=O)c2ccccc2Cl)nc1-c1ccccc1Oc1ccccc1` [Example 484] it was 100%.
For `Cc1ccccc1S(=O)(=O)NC(=O)c1cn(C)c(-c2ccccc2Oc2ccccc2)n1` [Example 485], the pest or weed control at 20 ppm in the assay with Meloidogyne incognita was found to be 90%.
The same measure, in the same setting: in the case of `COc1ccccc1S(=O)(=O)NC(=O)c1cn(C)c(-c2ccccc2Oc2ccccc2)n1` [Example 486] it was 90%; in that of `COc1ccccc1S(=O)(=O)NC(=O)c1cn(C)c(-c2ccncc2)n1` [Example 487], 90%; in that of `Cc1ccccc1NS(=O)(=O)NC(=O)c1cn(C)c(-c2c(F)cccc2F)n1` [Example 504], 90%.
For `Cn1cc(C(=O)NS(=O)(=O)N2CCOCC2)nc1-c1c(F)cccc1F` [Example 505], in the assay with Meloidogyne incognita, the pest or weed control at 20 ppm was determined as 90%.
Same read-out and setting: the same measure for `Cn1cc(C(=O)NS(=O)(=O)Nc2ccc(Cl)cc2)nc1-c1c(F)cccc1F` [Example 506]: 90%; for `Cn1cc(C(=O)NS(=O)(=O)Nc2ccccc2)nc1-c1c(F)cccc1F` [Example 507]: 90%; for `COc1ccccc1NS(=O)(=O)NC(=O)c1cn(C)c(-c2c(F)cccc2F)n1` [Example 508]: 90%.
On the same count and under the same terms, the same measure for `Cn1cc(C(=O)NS(=O)(=O)c2ccccc2Cl)nc1-c1cccs1` [Example 516]: 90%; for `Cn1cc(C(=O)NS(=O)(=O)c2ccccc2Cl)nc1-c1csc2ccccc12` [Example 522]: 90%.
For the compound `COc1ccccc1S(=O)(=O)NC(=O)c1cn(C)c(-c2cc(Cl)ccc2Cl)n1` [Example 527], in the assay with Meloidogyne incognita, the pest or weed control at 20 ppm came to 90%.
Same read-out and setting: the same measure for `Cc1ccccc1S(=O)(=O)NC(=O)c1cn(C)c(-c2csc3ccccc23)n1` [Example 530]: 90%.
Turning to `COc1ccccc1S(=O)(=O)NC(=O)c1cn(C)c(-c2ccccc2-c2ccccc2)n1` [Example 534], the pest or weed control at 20 ppm in the assay with Meloidogyne incognita turned out to be 90%.
Regarding `Cn1cc(C(=O)NS(=O)(=O)c2ccccc2Cl)nc1-c1ccc(Cl)c(Cl)c1` [Example 535], the pest or weed control at 20 ppm with Meloidogyne incognita was 100%.
Take `COc1ccccc1S(=O)(=O)NC(=O)c1cn(C)c(-c2ccc(Cl)c(Cl)c2)n1` [Example 537]: the pest or weed control at 20 ppm in the assay on Meloidogyne incognita amounted to 100%.
Still for that read-out and setting: the same measure for `Cn1cc(C(=O)NS(=O)(=O)c2ccccc2Cl)nc1-c1cccc2c1OC(F)(F)O2` [Example 541]: 100%; for `COc1ccccc1S(=O)(=O)NC(=O)c1cn(C)c(-c2cccc3c2OC(F)(F)O3)n1` [Example 543]: 90%.
The same measure, in the same setting: in the case of `Cn1cc(C(=O)NS(=O)(=O)c2ccccc2Cl)nc1-c1ccc(F)c(F)c1` [Example 544] it was 100%; in that of `Cc1ccccc1S(=O)(=O)NC(=O)c1cn(C)c(-c2ccc(F)c(F)c2)n1` [Example 545], 100%.
Same read-out and setting: the same measure for `COc1ccccc1S(=O)(=O)NC(=O)c1cn(C)c(-c2ccc(F)c(F)c2)n1` [Example 546]: 100%; for `CC(C)N(C)S(=O)(=O)NC(=O)c1cn(C)c(-c2c(F)cccc2F)n1` [Example 551]: 90%; for `Cn1c(-c2ccccc2Cl)nc(C(=O)NS(=O)(=O)c2ccccc2Cl)c1Br` [Example 580]: 100%.
Take `Cc1[nH]c(-c2ccc(Cl)c(Cl)c2)nc1C(=O)NS(=O)(=O)c1ccccc1Cl` [Example 614]: the pest or weed control at 20 ppm with Meloidogyne incognita is 100%.
The same measure, in the same setting: in the case of `COc1ccc(Cl)c(S(=O)(=O)NC(=O)c2nc(-c3cccc(C(C)C)c3)[nH]c2C)c1` [Example 621] it was 90%; in that of `Cc1[nH]c(-c2ccc(F)cc2F)nc1C(=O)NS(=O)(=O)C(C)C` [Example 622], 90%.
Take `Cc1[nH]c(-c2c(F)cccc2Cl)nc1C(=O)NS(=O)(=O)c1ccccc1Cl` [Example 623]: the pest or weed control at 20 ppm in the assay with Meloidogyne incognita came to 100%.
Still for that read-out and setting: the same measure for `COc1ccc(Cl)c(S(=O)(=O)NC(=O)c2nc(-c3c(F)cccc3Cl)[nH]c2C)c1` [Example 624]: 90%; for `Cc1[nH]c(-c2ccccc2F)nc1C(=O)NS(=O)(=O)c1ccccc1Cl` [Example 626]: 90%.
The same measure, in the same setting: the same measure for `COc1ccc(Cl)c(S(=O)(=O)NC(=O)c2nc(-c3ccccc3F)[nH]c2C)c1` [Example 627]: 90%.
